# Key:
# HeLa cells = experiment: Apoptosis assay (Hoechst staining, nuclear fragmentation); assay type: cell-based; conditions: 24 hours exposure to 75-100 μM
# Description: Apoptosis assay: Curcumin-induced apoptosis was monitored by the extent of nuclear fragmentation. Nuclear fragmentation was visualized by Hoechst staining of apoptotic nuclei. The apoptotic cells were collected by centrifugation, washed with PBS and fixed in 4% paraformaldehyde for 20 minutes at room tempertature. Subsequently the cells were washed and resuspended in 20 μl PBS before depositing it on poly lysine-coated coverslips and were left to adhere on cover slips for 30 min at room temperature after which the cover slips were washed twice with PBS. The adhered cells were then incubated with 0.1% Triton X-100 for 5 min at room temperature and rinsed with PBS for three times. The coverslips were treated with Hoechst 33258 for 30 minutes at 37° C., rinsed with PBS and mounted them on slides with glycerol-PBS and processed as described previously (29).
# Arrows indicate apoptotic nuclear fragmentation
# CBP = CBP (Homo sapiens, UniProt Q92793); experiment: Histone acetyltransferase (HAT) assay with CBP; assay type: biochemical; conditions: core histones
# Sequence of CBP (Q92793 whole entry): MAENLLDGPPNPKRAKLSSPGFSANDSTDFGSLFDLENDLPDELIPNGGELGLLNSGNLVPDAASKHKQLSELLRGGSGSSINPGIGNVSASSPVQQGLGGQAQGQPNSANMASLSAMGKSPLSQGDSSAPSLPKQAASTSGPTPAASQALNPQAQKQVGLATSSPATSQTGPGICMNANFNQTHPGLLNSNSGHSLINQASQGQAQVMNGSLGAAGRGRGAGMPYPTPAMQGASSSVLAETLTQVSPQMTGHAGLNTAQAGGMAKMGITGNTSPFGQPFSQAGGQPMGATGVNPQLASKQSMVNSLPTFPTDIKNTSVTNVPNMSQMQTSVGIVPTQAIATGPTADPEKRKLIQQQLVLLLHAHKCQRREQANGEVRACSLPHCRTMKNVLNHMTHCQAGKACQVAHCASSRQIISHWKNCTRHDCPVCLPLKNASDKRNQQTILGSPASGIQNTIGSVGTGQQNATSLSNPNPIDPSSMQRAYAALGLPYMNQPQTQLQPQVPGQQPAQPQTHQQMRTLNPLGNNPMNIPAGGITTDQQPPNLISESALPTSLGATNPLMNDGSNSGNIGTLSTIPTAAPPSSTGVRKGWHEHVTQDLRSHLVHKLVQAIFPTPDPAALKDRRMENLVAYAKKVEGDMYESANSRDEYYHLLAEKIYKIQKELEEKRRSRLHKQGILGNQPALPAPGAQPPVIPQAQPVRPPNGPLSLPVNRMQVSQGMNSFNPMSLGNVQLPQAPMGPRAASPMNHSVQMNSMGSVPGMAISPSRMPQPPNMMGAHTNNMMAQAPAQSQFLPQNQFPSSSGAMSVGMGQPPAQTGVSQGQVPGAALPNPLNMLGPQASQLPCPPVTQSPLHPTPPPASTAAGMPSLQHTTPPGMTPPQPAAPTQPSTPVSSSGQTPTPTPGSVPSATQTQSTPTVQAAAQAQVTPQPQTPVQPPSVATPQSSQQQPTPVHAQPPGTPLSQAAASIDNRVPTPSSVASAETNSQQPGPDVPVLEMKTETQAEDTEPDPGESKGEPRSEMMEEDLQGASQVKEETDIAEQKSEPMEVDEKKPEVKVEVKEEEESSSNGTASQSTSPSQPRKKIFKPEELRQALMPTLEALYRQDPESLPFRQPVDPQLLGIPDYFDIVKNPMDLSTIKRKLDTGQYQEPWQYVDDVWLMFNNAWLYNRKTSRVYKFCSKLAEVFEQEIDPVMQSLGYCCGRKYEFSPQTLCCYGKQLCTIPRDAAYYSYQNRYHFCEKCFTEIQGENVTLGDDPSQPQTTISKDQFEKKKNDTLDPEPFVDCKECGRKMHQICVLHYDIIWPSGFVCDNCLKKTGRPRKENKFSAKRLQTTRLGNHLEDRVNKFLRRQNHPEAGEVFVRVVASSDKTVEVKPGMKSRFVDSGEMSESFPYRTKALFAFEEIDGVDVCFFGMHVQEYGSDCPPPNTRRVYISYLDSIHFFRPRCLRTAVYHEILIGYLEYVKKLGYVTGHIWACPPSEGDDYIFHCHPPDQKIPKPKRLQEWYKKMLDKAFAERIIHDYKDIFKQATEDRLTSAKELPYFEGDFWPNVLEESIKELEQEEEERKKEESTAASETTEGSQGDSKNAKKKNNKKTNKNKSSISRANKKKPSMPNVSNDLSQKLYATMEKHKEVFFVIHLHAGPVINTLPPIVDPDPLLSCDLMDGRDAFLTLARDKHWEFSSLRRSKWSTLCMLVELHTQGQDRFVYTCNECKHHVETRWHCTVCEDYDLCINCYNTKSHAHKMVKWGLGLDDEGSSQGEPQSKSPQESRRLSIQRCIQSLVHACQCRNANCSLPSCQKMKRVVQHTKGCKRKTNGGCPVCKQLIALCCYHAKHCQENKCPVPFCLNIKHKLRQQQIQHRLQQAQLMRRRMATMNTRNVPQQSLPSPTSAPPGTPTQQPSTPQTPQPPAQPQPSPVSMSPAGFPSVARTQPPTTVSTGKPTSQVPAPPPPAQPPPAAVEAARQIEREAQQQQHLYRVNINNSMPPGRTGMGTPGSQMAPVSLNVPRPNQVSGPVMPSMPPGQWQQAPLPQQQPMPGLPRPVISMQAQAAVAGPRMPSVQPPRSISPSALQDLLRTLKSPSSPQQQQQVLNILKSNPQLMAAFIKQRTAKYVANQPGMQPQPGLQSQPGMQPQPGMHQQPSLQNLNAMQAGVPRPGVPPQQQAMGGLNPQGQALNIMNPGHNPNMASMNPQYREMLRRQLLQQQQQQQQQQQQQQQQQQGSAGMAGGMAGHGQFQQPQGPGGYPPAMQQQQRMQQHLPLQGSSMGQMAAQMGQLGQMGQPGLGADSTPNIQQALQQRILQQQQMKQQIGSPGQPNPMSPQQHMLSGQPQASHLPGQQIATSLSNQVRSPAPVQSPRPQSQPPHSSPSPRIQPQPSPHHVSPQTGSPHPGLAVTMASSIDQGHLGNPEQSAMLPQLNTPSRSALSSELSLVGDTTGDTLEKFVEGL
# Description: (§1) Histone acetyltransferase Assay: HAT assays were performed as described previously (30). […] The reaction mixture was then blotted onto P-81 (Whatman) filter paper and radioactive counts were recorded on a Wallac 1409 liquid scintillation counter. The radiolabeled acetylated histones were visualized by resolving on 15% SDS-polyacrylamide gel and subjected to fluorography followed by autoradiography.
# [1] = tested on: acetylation of histones in HeLa cells; experiment: In vivo histone acetylation in cells (AUT gel and western blotting); assay type: cell-based
# Description: Acid/Urea/Triton (A UT) polyacrylamide gel electrophoresis and Western Blotting for in vivo acetylated histones: HeLa cells (3×10^6 cells per 90 mm dish) were seeded overnight and histones were extracted from 24 hours of compound treated cells as reported earlier (29,32). Briefly, cells were harvested, washed in ice-cold buffer A (150 mM KCl, 20 mM HEPES, pH 7.9, 0.1 mM EDTA and 2.5 mM MgCl2) and lysed in buffer A containing 250 mM sucrose and 1% (v/v) Triton X 100. Nuclei were recovered by centrifugation, washed, and proteins were extracted for 1 h using 0.25 M HCl. The proteins were precipitated with 25% (w/v) trichloroacetic acid (TCA) and sequentially washed with ice-cold acidified acetone (20 μl of 12N HCl in 100 ml acetone), and acetone, air-dried and dissolved in the sample buffer (5.8 M urea, 0.9 M glacial acetic acid, 16% glycerol, and 4.8% 2-mercaptoethanol). The histones (equal amounts in all lanes) were resolved on AUT gel as described elsewhere (33,34).
# For western blotting, the quantitated protein samples were run on a 12% SDS-polyacrylamide gel and following electrophoresis, proteins on the gel were electrotransferred onto an immobilon membrane (PVDF; Millipore Corp., Bedford, Mass.). The membranes were then blocked in 5% skim milk powder solution in 1×PBS containing 0.05% Tween 20 and then immunoblotted with anti-acetyl H3 (Calbiochem), anti-acetyl H4 (a kind gift from Dr. Alaine Verrault) and anti-H3 respectively. Detection was performed using goat anti-rabbit secondary antibody (Bangalore Genei) and bands were visualized by ECL detection system (Pierce).
# (B) HeLa cells were treated as indicated, for 24 hours, histones were extracted and separated on an 18% acid/urea/triton (AUT) PAGE. The protein bands were visualized by Coomassie brilliant blue staining. […] Asterisk (*) indicates hyperacetylation of histones in response to HDAC inhibition by TSA and sodium butyrate. […] (C). The acid-extracted histones were resolved over 12% SDS-PAGE and were analyzed by western blot using antibodies against acetylated histone H3 and H4. Loading and transfer of equal amounts of protein were confirmed by immunodetection of histone H3. (D) 293 T cells were transiently transfected with CMV-p53 and CMV-p300 either alone or in combination as indicated. […] The p53 protein was immunoprecipitated from the cell lysates using p53 monoclonal antibody and acetylation status was analyzed by western blotting. Lanes 1 and 4, transfection with p53 alone; lanes 2 and 5, co-transfection with p53 and p300; lanes 3 and 6, transfection with p300 alone. (IP:Immunoprecipitation and IB: Immunoblotting).
# [2] = tested on: transcription from DNA template; experiment: In vitro transcription from DNA template; assay type: biochemical; conditions: even at 300 μM
# Description: (§2) In vitro Transcription Assay: Transcription assays were carried out as described elsewhere (9) with the necessary modifications. The reconstituted chromatin template (containing 30 ng DNA) or an equimolar amount of histone—free DNA was incubated with 50 ng of activator (Gal4-VP16) in a buffer containing 4 mM HEPES (pH 7.8), 20 mM KCl, 2 mM DTT, 0.2 mM PMSF, 10 mM sodium butyrate, 0.1 mg/ml bovine serum albumin, 2% glycerol. […] HeLa nuclear extract (5 μl, which contains 8 mg/ml protein) was added then to initiate the preinitiation complex formation. Transcription reaction was started by the addition of NTP-mix and α-[^32P] UTP after the preinitiation complex formation and incubated further for 40 min at 30° C. For loading control separate reaction was setup with ˜25 ng of supercoiled ML200 DNA, and the transcription assay was carried out as described above, without the addition of the activator (Gal4-VP16) and 2 μl of this reaction was added to each of the transcription reactions. […] Transcripts were analysed by 5% Urea-PAGE and quantification of transcription was done by phosphoimager (Fuji) analysis. […]
# (§3) (A), Schematic representation of the in vitro transcription protocol. […] The in vitro transcription reaction mixtures were analyzed on 5% urea-acrylamide gel and further processed by autoradiography.
# [3] = tested on: HIV-1 (H9/HTLV-IIIb NIH 1983 cells cocultured with SupT1 cells); experiment: Syncytium inhibition assay; assay type: cell-based; conditions: 12 h
# Description: Syncytium inhibition assay: The cell lines SupT1 and H9/HTLV-IIIb NIH 1983 were obtained from The AIDS Research and Reference Reagent Program. H9/HTLV-IIIb NIH 1983 cells carrying a stably integrated provirus were cocultured with excess numbers of SupT1 cells at a ration of 1:200 or 1:400. A total of […] were seeded per well in a 24-well plate and cultured in RPMI medium supplemented with 10% fetal calf serum and antibiotics. […] All the wells received the same amount of DMSO including the control wells. Formation of syncytia was visible under light microscope within 12 hrs. The total number of syncytia in 10 representative wells was counted at different time points (12, 24 and 48 h) and data for 12 h time point are presented. Identical results were obtained at other time points. All the assays were performed in triplicate wells and the experiment was performed two times.
# (A), H9/HTLV-IIIb NIH 1983 carrying stable integrated virus were cocultured with excess numbers of SupT1 cells at 1:200 or 1:400 ratio. A total of 0.1×10^6 cells were seeded per well. […] Formation of syncytia is visible under light microscope within 12 hrs. The total number of syncytia in 10 representative wells was counted and presented. The data are representative of 2 independent experiments.
# [4] = tested on: p300 HAT activity dependent chromatin transcription; experiment: In vitro transcription from chromatin template; assay type: biochemical
# Description: In Vitro Chromatin Assembly: Chromatin template for in vitro transcription experiments was assembled and characterized as described earlier (9).
# as §2, with “C.” for “C. For loading control separate reaction was setup with ˜25 ng of supercoiled ML200 DNA, and the transcription assay was carried out as described above, without the addition of the activator (Gal4-VP16) and 2 μl of this reaction was added to each of the transcription reactions.”
# as §3
# p300 = p300 (Homo sapiens, UniProt Q09472); experiment: Histone acetyltransferase (HAT) assay, filter binding and gel, with p300; assay type: biochemical; conditions: varying acetyl CoA or histone concentration; 25 and 30 μM curcumin
# Sequence of p300 (Q09472 whole entry, species assumed): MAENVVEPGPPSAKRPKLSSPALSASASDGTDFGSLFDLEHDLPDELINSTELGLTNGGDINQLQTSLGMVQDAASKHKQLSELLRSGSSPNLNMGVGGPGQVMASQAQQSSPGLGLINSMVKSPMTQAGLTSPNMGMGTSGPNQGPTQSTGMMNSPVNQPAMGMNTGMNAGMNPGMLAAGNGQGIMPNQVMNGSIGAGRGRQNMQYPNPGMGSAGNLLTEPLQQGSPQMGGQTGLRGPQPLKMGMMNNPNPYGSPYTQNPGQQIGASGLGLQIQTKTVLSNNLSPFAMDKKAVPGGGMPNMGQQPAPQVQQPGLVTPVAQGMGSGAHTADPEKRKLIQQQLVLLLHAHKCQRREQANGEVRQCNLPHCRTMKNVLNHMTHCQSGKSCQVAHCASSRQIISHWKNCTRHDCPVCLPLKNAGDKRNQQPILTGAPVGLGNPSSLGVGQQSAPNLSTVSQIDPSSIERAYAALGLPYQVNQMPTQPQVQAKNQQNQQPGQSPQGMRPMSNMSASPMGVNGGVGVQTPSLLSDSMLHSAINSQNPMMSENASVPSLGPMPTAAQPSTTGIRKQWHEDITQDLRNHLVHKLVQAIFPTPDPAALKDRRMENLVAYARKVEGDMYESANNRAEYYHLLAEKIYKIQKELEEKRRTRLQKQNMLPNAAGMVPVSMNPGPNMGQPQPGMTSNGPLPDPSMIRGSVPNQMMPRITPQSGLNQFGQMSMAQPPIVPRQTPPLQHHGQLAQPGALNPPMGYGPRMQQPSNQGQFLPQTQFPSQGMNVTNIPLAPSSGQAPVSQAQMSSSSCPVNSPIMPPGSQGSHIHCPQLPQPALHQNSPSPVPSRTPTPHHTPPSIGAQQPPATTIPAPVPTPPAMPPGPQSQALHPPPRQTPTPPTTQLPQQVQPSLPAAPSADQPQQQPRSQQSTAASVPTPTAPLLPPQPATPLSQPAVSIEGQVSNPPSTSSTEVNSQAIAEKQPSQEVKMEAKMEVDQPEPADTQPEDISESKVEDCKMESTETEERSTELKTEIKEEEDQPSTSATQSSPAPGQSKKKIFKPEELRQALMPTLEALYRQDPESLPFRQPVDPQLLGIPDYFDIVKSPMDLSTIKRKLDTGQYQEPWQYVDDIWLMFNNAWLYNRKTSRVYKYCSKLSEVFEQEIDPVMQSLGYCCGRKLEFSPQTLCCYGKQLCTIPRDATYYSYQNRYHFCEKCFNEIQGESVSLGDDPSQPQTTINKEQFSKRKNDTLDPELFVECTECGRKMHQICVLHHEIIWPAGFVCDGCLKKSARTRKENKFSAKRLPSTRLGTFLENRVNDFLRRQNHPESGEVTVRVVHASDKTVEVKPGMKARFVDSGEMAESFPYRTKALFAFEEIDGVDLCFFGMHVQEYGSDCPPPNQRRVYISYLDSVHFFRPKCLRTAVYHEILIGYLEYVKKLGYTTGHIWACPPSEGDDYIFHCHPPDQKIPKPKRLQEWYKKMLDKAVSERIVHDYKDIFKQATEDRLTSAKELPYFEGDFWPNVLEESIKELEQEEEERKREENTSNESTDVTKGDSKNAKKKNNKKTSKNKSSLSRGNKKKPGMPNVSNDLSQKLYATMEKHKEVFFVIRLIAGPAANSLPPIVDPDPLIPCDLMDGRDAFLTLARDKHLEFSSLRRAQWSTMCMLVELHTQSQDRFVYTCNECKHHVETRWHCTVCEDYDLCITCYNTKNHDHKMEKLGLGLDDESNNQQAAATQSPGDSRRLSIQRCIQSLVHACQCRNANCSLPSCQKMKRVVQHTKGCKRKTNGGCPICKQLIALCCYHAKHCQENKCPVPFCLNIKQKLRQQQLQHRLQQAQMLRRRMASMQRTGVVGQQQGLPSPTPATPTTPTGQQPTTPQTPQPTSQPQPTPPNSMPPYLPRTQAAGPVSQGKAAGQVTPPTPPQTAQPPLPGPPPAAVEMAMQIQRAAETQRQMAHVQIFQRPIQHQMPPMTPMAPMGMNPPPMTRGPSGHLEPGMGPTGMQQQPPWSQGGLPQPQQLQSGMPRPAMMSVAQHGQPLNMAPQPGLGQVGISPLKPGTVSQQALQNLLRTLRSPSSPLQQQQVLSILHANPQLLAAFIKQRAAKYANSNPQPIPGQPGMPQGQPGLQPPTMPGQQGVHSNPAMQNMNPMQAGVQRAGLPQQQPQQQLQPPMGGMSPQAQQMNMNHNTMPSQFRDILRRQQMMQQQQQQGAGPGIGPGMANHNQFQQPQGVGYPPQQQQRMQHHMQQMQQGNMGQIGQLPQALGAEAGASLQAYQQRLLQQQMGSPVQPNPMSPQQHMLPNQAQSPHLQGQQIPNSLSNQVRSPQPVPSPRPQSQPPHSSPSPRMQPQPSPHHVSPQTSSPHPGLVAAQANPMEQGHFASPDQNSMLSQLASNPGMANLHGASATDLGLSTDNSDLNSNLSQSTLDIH
# From the text: The results were plotted using the Graph Pad Prism software.
# [5] = tested on: acetylation of p53 in 293 T cells; experiment: p53 acetylation in transfected cells (immunoprecipitation, western blotting); assay type: cell-based; conditions: 24 hours
# Description: 293 T cells were transfected with CMV-p53 and CMV-p300 using Lipofectamine 2000 reagent (Invitrogen) according to the manufacturer's instructions. […] The cells were harvested using RIPA buffer (150 mM NaCl, 50 mM Tris pH 7.4, 1% NP40, 0.1% Sodium deoxycholate, 1 mM EDTA, 0.5 μg/ml leupeptin, 0.5 μg/ml aprotinin and 0.5 μg/ml pepstatin) and the p53 protein was immunoprecipitated from the lysates using mouse monoclonal anti-p53 antibody, DO1 (oncogene). The immunocomplexes were bound on protein G-sepharose beads (Amersham Pharmacia) for 12 hours at 4° C., washed 3 times with RIPA buffer and subjected to SDS-PAGE on a 10% gel followed by western blotting using mouse monoclonal anti-p53 antibody, pAb421 or mouse monoclonal anti-acetylated lysine antibody.
# (B) HeLa cells were treated as indicated, for 24 hours, histones were extracted and separated on an 18% acid/urea/triton (AUT) PAGE. The protein bands were visualized by Coomassie brilliant blue staining. […] Asterisk (*) indicates hyperacetylation of histones in response to HDAC inhibition by TSA and sodium butyrate. […] (C). The acid-extracted histones were resolved over 12% SDS-PAGE and were analyzed by western blot using antibodies against acetylated histone H3 and H4. […] The p53 protein was immunoprecipitated from the cell lysates using p53 monoclonal antibody and acetylation status was analyzed by western blotting. […]
# [6] = biological target: T1, lysine methyltransferase G9a (Homo sapiens, UniProt Q96KQ7); experiment: Histone methyltransferase assay with G9a; assay type: biochemical; conditions: 50 and 100 μM curcumin
# T1 construct: bacterially expressed HMTase domain of G9a fused to GST (31); GST; made in house
# T1 sequence (Q96KQ7 830-1209 limits assumed): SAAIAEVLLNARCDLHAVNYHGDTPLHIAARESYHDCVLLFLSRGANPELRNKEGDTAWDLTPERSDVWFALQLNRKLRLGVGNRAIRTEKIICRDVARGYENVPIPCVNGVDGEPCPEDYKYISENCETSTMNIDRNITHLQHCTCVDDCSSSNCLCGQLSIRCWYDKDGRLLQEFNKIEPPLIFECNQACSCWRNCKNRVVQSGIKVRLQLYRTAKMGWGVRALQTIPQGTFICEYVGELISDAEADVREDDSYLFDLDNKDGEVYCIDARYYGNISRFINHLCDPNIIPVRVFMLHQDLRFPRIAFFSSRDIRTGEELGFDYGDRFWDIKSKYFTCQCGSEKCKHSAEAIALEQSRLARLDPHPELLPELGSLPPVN
# Description: (§4) Histone methyltransferase and deacetylase Assays: Histone methyltransferase assays were performed in a 30 μl reaction. […] After the initial incubation, 1 μl of 8.3 Ci/mmol ^3H—S— Adenosyl Methionine was added to the reaction mixtures and the incubation continued for 1 hour (in the case of nuclear extract) or for 15 minutes (in the case of G9a). The reaction products were TCA precipitated, resolved on 15% SDS-PAGE and subjected to fluorography followed by autoradiography.
# (§5) The reaction products were TCA precipitated, resolved on 15% SDS-PAGE and subjected to fluorography followed by autoradiography.
# SupT1 cells = experiment: Trypan blue exclusion analysis of viable cells; assay type: cell-based; conditions: 100 μM curcumin, 48 hrs
# From the text: Various experimental formats have been used to evaluate infection of target cells by HIV or inhibition of the viral infection in the presence of an anti-viral compound (44, 45). The standard format is to add titered viral stock to the target cells at a known multiplicity of infection (MOI) in the presence or absence of an anti-viral compound and monitor the synthesis of the viral structural protein p24 or the enzyme reverse transcriptase (46, 47). In the natural context, the viral transfer is more efficient through cell-to-cell contact rather than free virus infecting a target cell. Prevention of the viral transfer between cells is technically more difficult than neutralizing the free virus. SupT1 cells are highly […] for HIV-1 and these cells make numerous and large syncytia when infected with the virus. Taking advantage of this property, we co-cultured SupT1 cells in the presence of H9/HTLV-IIIb NIH 1983 cells that produce a T-cell tropic virus. […] To rule out the possibility of cytotoxicity and cell death, we determined the number of viable cells in all the wells using a trypan blue exclusion analysis.
# [7] = tested on: histone methyltransferase enzymes of HeLa nuclear extract; experiment: Histone methyltransferase assay with HeLa nuclear extract; assay type: biochemical; conditions: 50 and 100 μM curcumin
# Description: as §4, §5
# [8] = biological target: T2, p300 (substrate HIV-Tat protein) (Homo sapiens, UniProt Q09472); experiment: Acetylation of Tat protein by p300 (HAT assay); assay type: biochemical; conditions: […] and 50 μM curcumin
# T2 construct: made in house
# T2 sequence (Q09472 whole entry, species assumed): as the sequence (Q09472 whole entry, species assumed) above
# Description: as §1
# (B), the percentage of acetylation was calculated in each of the cases by accounting for the corrections of acetylation in the case of Tat alone.
# PCAF = PCAF (Homo sapiens, UniProt Q92831); experiment: Histone acetyltransferase (HAT) assay with PCAF; assay type: biochemical; conditions: 100 μM curcumin
# Description: as §1
# [9] = HeLa cells, TSA and sodium butyrate, with versus without curcumin (lane 5 versus 6)
compound,measurement,setting,value
COc1cc(/C=C/C(=O)CC(=O)/C=C/c2ccc(O)c(OC)c2)ccc1O [curcumin],apoptosis (nuclear fragmentation),HeLa cells,induces the apoptosis
same,inhibition of CBP HAT activity,CBP,potent and specific inhibitor
same,acetylation of histones (AUT gel),"[1]; HeLa cells hyperacetylated with TSA and sodium butyrate, 100 μM curcumin",inhibited
same,unacetylated form of histone H4 and H2B (AUT gel),"[1]; HeLa cells, 75 and 100 μM curcumin, 24 hours",modestly increased
same,inhibition of H3 acetylation (western blotting),[1]; [9],6 fold
same,inhibition of H4 acetylation (western blotting),[1]; [9],10 fold
same,transcription from the DNA template,[2],not affected
same,number of syncytia,[3]; highest concentration of curcumin,no syncytia were seen
same,number of syncytia,[3]; increasing concentration of curcumin,dose-dependent reduction
same,repression of p300 HAT activity dependent chromatin transcription,[4]; 100 μM,≤ 3 fold
same,repression of p300 HAT activity dependent chromatin transcription,[4]; 300 μM,≤ 8 fold
same,Kcat of p300 HAT activity,p300,decreased
same,Km of p300 HAT activity,p300,decreased
same,Vmax of p300 HAT activity,p300,decreased
same,p300-mediated acetylation of p53,"[5]; 293 T cells transfected with p53 and p300, 100 μM curcumin",completely inhibits
same,acetylation status of the endogenous p53,"[5]; 293 T cells transfected with p300 alone, 100 μM curcumin",not altered
same,histone methylation by G9a,[6],remains same
same,"cytotoxicity (viable cells, trypan blue exclusion)",SupT1 cells,not cytotoxic
same,methylation of core histones by HeLa nuclear extract (NE),[7],no difference
same,acetylation of Tat by p300 in vitro,[8],strongly inhibits
same,PCAF HAT activity,PCAF,no change

# Reference: patent publication US20060020027A1, “Use of curcumanoids as histone acetyltransferases (HATs) inhibitors” (priority 2004, published 2006)
